Laboratory results as given in PubChem BioAssay (NCI).
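Compound exposure: 48 hours, 5 concentrations, 96-well plates. At the GI50, growth is halved. TGI: concentration producing complete growth inhibition.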

Assays:
Experiment in all cases: NCI-60 cell line screen, 48 h; in the data active = GI50 below about 0.43 µM; inactive = the rest
K-562 leukemia = system: K-562 leukemia
HOP-62 NSCLC = system: HOP-62 NSCLC
NCI-H23 lung = system: NCI-H23 lung
HOP-92 NSCLC = system: HOP-92 NSCLC
SF-268 CNS = system: SF-268 CNS
LOX IMVI melanoma = system: LOX IMVI melanoma
MDA-MB-435 = system: MDA-MB-435
SK-OV-3 ovarian = system: SK-OV-3 ovarian
SK-MEL-2 melanoma = system: SK-MEL-2 melanoma
T-47D breast = system: T-47D breast
UACC-62 melanoma = system: UACC-62 melanoma
TK-10 renal = system: TK-10 renal
KM12 colon = system: KM12 colon
786-0 renal = system: 786-0 renal
RPMI-8226 leukemia = system: RPMI-8226 leukemia
A549 NSCLC = system: A549 NSCLC
A498 renal = system: A498 renal
OVCAR-3 ovarian = system: OVCAR-3 ovarian
CAKI-1 renal = system: CAKI-1 renal
M14 melanoma = system: M14 melanoma
OVCAR-8 ovarian = system: OVCAR-8 ovarian
SK-MEL-28 melanoma = system: SK-MEL-28 melanoma
MCF7 breast = system: MCF7 breast
SW-620 colon = system: SW-620 colon
OVCAR-5 ovarian = system: OVCAR-5 ovarian
UO-31 renal = system: UO-31 renal
CCRF-CEM leukemia = system: CCRF-CEM leukemia
NCI/ADR-RES ovarian = system: NCI/ADR-RES ovarian
SN12C renal = system: SN12C renal
SNB-75 CNS = system: SNB-75 CNS
SF-295 CNS = system: SF-295 CNS
HCT-15 colon = system: HCT-15 colon
SNB-19 CNS = system: SNB-19 CNS
COLO 205 colon = system: COLO 205 colon
HL-60(TB) leukemia = system: HL-60(TB) leukemia
NCI-H522 lung = system: NCI-H522 lung
PC-3 prostate = system: PC-3 prostate
MOLT-4 leukemia = system: MOLT-4 leukemia
NCI-H226 lung = system: NCI-H226 lung
SR leukemia = system: SR leukemia
HS 578T breast = system: HS 578T breast
SF-539 CNS = system: SF-539 CNS
MDA-MB-231 breast = system: MDA-MB-231 breast
MALME-3M melanoma = system: MALME-3M melanoma
NCI-H460 lung = system: NCI-H460 lung
ACHN renal = system: ACHN renal
UACC-257 melanoma = system: UACC-257 melanoma
RXF 393 renal = system: RXF 393 renal
SK-MEL-5 melanoma = system: SK-MEL-5 melanoma
BT-549 breast = system: BT-549 breast
HCT-116 colon = system: HCT-116 colon
HCC-2998 colon = system: HCC-2998 colon
DU-145 prostate = system: DU-145 prostate
IGROV1 ovarian = system: IGROV1 ovarian
MDA-N = system: MDA-N
HT29 colon = system: HT29 colon
U251 CNS = system: U251 CNS
EKVX NSCLC = system: EKVX NSCLC
OVCAR-4 ovarian = system: OVCAR-4 ovarian

COc1ccc(C2CC(c3cccc(Nc4ccnc5cc(Cl)ccc45)c3)=NN2c2ccccc2)cc1 (stereo unspecified)
22.8 µM: TGI (RPMI-8226 leukemia)
18.7 µM: TGI (HCT-116 colon)
32.3 µM: TGI (K-562 leukemia)
49.7 µM: TGI (RXF 393 renal)
inactive: GI50 (K-562 leukemia) 0.492 µM | GI50 (HOP-62 NSCLC) 0.949 µM | GI50 (NCI-H23 lung) 8.78 µM | GI50 (HOP-92 NSCLC) 3.93 µM | GI50 (SF-268 CNS) 4.19 µM | GI50 (SK-OV-3 ovarian) 9.62 µM | GI50 (SK-MEL-2 melanoma) 2.07 µM | GI50 (TK-10 renal) 3.76 µM | GI50 (786-0 renal) 3.95 µM | GI50 (RPMI-8226 leukemia) 1.27 µM | GI50 (A549 NSCLC) 2 µM | GI50 (A498 renal) 2.87 µM | GI50 (OVCAR-3 ovarian) 3.2 µM | GI50 (CAKI-1 renal) 0.681 µM | GI50 (OVCAR-8 ovarian) 2.85 µM | GI50 (SK-MEL-28 melanoma) 4.41 µM | GI50 (MCF7 breast) 1.52 µM | GI50 (OVCAR-5 ovarian) 11.8 µM | GI50 (UO-31 renal) 0.478 µM | GI50 (CCRF-CEM leukemia) 0.546 µM | GI50 (NCI/ADR-RES ovarian) 1.51 µM | GI50 (SN12C renal) 7.19 µM | GI50 (SNB-75 CNS) 3.34 µM | GI50 (SF-295 CNS) 1.62 µM | GI50 (SNB-19 CNS) 6.9 µM | GI50 (COLO 205 colon) 1.43 µM | GI50 (NCI-H522 lung) 0.952 µM | GI50 (PC-3 prostate) 0.453 µM | GI50 (MOLT-4 leukemia) 0.432 µM | GI50 (NCI-H226 lung) 11.3 µM | GI50 (SR leukemia) 1.17 µM | GI50 (HS 578T breast) 6.79 µM | GI50 (SF-539 CNS) 1.15 µM | GI50 (MDA-MB-231 breast) 1.31 µM | GI50 (MALME-3M melanoma) 10.7 µM | GI50 (ACHN renal) 3.5 µM | GI50 (UACC-257 melanoma) 1.36 µM | GI50 (RXF 393 renal) 8.91 µM | GI50 (SK-MEL-5 melanoma) 1.46 µM | GI50 (BT-549 breast) 7.42 µM | GI50 (HCT-116 colon) 1.12 µM | GI50 (HCC-2998 colon) 0.535 µM | GI50 (DU-145 prostate) 14 µM | GI50 (IGROV1 ovarian) 11.6 µM
14.4 µM: TGI (SW-620 colon)
31.4 µM: TGI (UACC-257 melanoma)
21.6 µM: TGI (UO-31 renal)
11.1 µM: TGI (LOX IMVI melanoma)
8.66 µM: TGI (COLO 205 colon)
97.2 µM: TGI (TK-10 renal)
59.7 µM: TGI (NCI-H23 lung)
76.5 µM: TGI (SK-OV-3 ovarian)
21.3 µM: TGI (HOP-62 NSCLC)
17.5 µM: TGI (HL-60(TB) leukemia)
8.52 µM: TGI (SR leukemia)
16.4 µM: TGI (SF-295 CNS)
27.4 µM: TGI (MCF7 breast)
4.76 µM: TGI (SK-MEL-5 melanoma)
81.2 µM: TGI (A498 renal)
32.5 µM: TGI (SK-MEL-28 melanoma)
> 100 µM: TGI (SF-268 CNS) | TGI (786-0 renal) | TGI (A549 NSCLC) | TGI (OVCAR-3 ovarian) | TGI (CAKI-1 renal) | TGI (SN12C renal) | TGI (SNB-19 CNS) | TGI (DU-145 prostate) | TGI (IGROV1 ovarian)
12.2 µM: TGI (NCI-H460 lung)
10.4 µM: TGI (SK-MEL-2 melanoma)
13.8 µM: TGI (NCI-H522 lung)
73.2 µM: TGI (HS 578T breast)
14.7 µM: TGI (HCT-15 colon)
47.6 µM: TGI (HOP-92 NSCLC)
95.3 µM: TGI (PC-3 prostate)
19.6 µM: TGI (KM12 colon)
active: GI50 (LOX IMVI melanoma) 0.338 µM | GI50 (MDA-MB-435) 0.219 µM | GI50 (T-47D breast) 0.171 µM | GI50 (UACC-62 melanoma) 0.051 µM | GI50 (KM12 colon) 0.226 µM | GI50 (M14 melanoma) 0.331 µM | GI50 (SW-620 colon) 0.277 µM | GI50 (HCT-15 colon) 0.335 µM | GI50 (HL-60(TB) leukemia) 0.282 µM | GI50 (NCI-H460 lung) 0.418 µM
33.2 µM: TGI (ACHN renal)
26.4 µM: TGI (NCI/ADR-RES ovarian)
27.6 µM: TGI (MOLT-4 leukemia)
49.1 µM: TGI (SNB-75 CNS)
63.8 µM: TGI (NCI-H226 lung)
29.2 µM: TGI (MDA-MB-231 breast)
15.4 µM: TGI (M14 melanoma)
61.7 µM: TGI (OVCAR-5 ovarian)
37.9 µM: TGI (CCRF-CEM leukemia)
20 µM: TGI (T-47D breast)
11.5 µM: TGI (HCC-2998 colon)
11.7 µM: TGI (UACC-62 melanoma)
3.25 µM: TGI (SF-539 CNS)
38.8 µM: TGI (OVCAR-8 ovarian)
39.2 µM: TGI (BT-549 breast)
2.92 µM: TGI (MDA-MB-435)
42.7 µM: TGI (MALME-3M melanoma)

Cc1ccc(N=c2oc3c(ccc4ccccc43)nc2Nc2ccc(C)cc2)cc1
> 100 µM: TGI (K-562 leukemia) | TGI (HOP-62 NSCLC) | TGI (NCI-H23 lung) | TGI (HOP-92 NSCLC) | TGI (SF-268 CNS) | TGI (LOX IMVI melanoma) | TGI (MDA-MB-435) | TGI (SK-OV-3 ovarian) | TGI (SK-MEL-2 melanoma) | TGI (T-47D breast) | TGI (UACC-62 melanoma) | TGI (TK-10 renal) | TGI (KM12 colon) | TGI (786-0 renal) | TGI (RPMI-8226 leukemia) | TGI (MDA-N) | TGI (HT29 colon) | TGI (A549 NSCLC) | TGI (A498 renal) | TGI (CAKI-1 renal) | TGI (U251 CNS) | TGI (OVCAR-8 ovarian) | TGI (SK-MEL-28 melanoma) | TGI (SW-620 colon) | TGI (OVCAR-5 ovarian) | TGI (UO-31 renal) | TGI (CCRF-CEM leukemia) | TGI (NCI/ADR-RES ovarian) | TGI (SN12C renal) | TGI (SNB-75 CNS) | TGI (SF-295 CNS) | TGI (HCT-15 colon) | TGI (SNB-19 CNS) | TGI (COLO 205 colon) | TGI (HL-60(TB) leukemia) | TGI (NCI-H522 lung) | TGI (PC-3 prostate) | TGI (MOLT-4 leukemia) | TGI (NCI-H226 lung) | TGI (SR leukemia) | TGI (HS 578T breast) | TGI (SF-539 CNS) | TGI (EKVX NSCLC) | TGI (MDA-MB-231 breast) | TGI (MALME-3M melanoma) | TGI (NCI-H460 lung) | TGI (ACHN renal) | TGI (UACC-257 melanoma) | TGI (RXF 393 renal) | TGI (OVCAR-4 ovarian) | TGI (SK-MEL-5 melanoma) | TGI (HCT-116 colon) | TGI (HCC-2998 colon) | TGI (DU-145 prostate) | TGI (IGROV1 ovarian)

O=c1[nH]c(=O)n(COCCO)cc1-c1ccccc1
> 100 µM: TGI (K-562 leukemia) | TGI (HOP-62 NSCLC) | TGI (NCI-H23 lung) | TGI (HOP-92 NSCLC) | TGI (SF-268 CNS) | TGI (LOX IMVI melanoma) | TGI (MDA-MB-435) | TGI (SK-OV-3 ovarian) | TGI (SK-MEL-2 melanoma) | TGI (T-47D breast) | TGI (UACC-62 melanoma) | TGI (TK-10 renal) | TGI (KM12 colon) | TGI (786-0 renal) | TGI (RPMI-8226 leukemia) | TGI (MDA-N) | TGI (HT29 colon) | TGI (A549 NSCLC) | TGI (OVCAR-3 ovarian) | TGI (CAKI-1 renal) | TGI (M14 melanoma) | TGI (U251 CNS) | TGI (OVCAR-8 ovarian) | TGI (SK-MEL-28 melanoma) | TGI (MCF7 breast) | TGI (SW-620 colon) | TGI (OVCAR-5 ovarian) | TGI (UO-31 renal) | TGI (CCRF-CEM leukemia) | TGI (NCI/ADR-RES ovarian) | TGI (SN12C renal) | TGI (SF-295 CNS) | TGI (HCT-15 colon) | TGI (SNB-19 CNS) | TGI (COLO 205 colon) | TGI (HL-60(TB) leukemia) | TGI (NCI-H522 lung) | TGI (PC-3 prostate) | TGI (MOLT-4 leukemia) | TGI (SR leukemia) | TGI (HS 578T breast) | TGI (EKVX NSCLC) | TGI (MDA-MB-231 breast) | TGI (MALME-3M melanoma) | TGI (NCI-H460 lung) | TGI (ACHN renal) | TGI (UACC-257 melanoma) | TGI (OVCAR-4 ovarian) | TGI (SK-MEL-5 melanoma) | TGI (HCT-116 colon) | TGI (HCC-2998 colon) | TGI (DU-145 prostate) | TGI (IGROV1 ovarian)
